Experimental data from US10781224B2, “Bis(oxymethyl)phosphinic acid and biogenic metal salts thereof as regulators of plant growth and development” (priority 2016, dated 2020).

Assays:
rice (Diamant variety) = assay: Rice seed treatment with BHMPA salts: germinating power; format: in vivo
Procedure: (§1) Experimental versions—soaking seeds in BHMPA solutions and solutions of BHMPA Ca, Mg, Na, Co, Mn, Cu, and Zn salts at 1·10^−6-1·10^−12% concentrations (doses). The studies were conducted in laboratory in Petri dishes; seed bed—two layers of filter paper. 50 seeds soaked in water (control) and in the solutions of the tested compounds (experimental) were placed into each dish. Wheat, corn, and rice seeds were exposed for one hour.
(§2) Seed germination energy and rate were calculated in percent as an arithmetic mean of the four experimental results (germination energy on the 4th day, wheat germination on the 8th day, rice and corn germination—on the 7th day). Germination was determined based on the germinating power indicators (length of the roots and sprouts and their wet and dry mass per 100 shoots).
(§3) The effect of pre-sowing seed treatment with the claimed BHMPA salts of biogenic metals was studied on winter wheat (Vershin variety), corn (Krasnodar 385 MV variety), and rice (Diamant variety).
The above data describe the seed viability only at the initial stage of germination, while the germination ability at the later stage of germination is defined by the initial germinating power. The method for the determination of the germinating power comprises measuring the height of the sprouts and primary roots, as well as the biomass and the dry mass thereof per 100 seedlings. [M. A. Kartuzova. Initial Germinating Power as Method of Biological Assessment of Seed Quality. Selection and Seed Farming, #2, 1953].

[1] = system: winter wheat (Vershin variety); assay: Winter wheat seed treatment with BHMPA salts: germination energy and germination rate; format: in vivo
Procedure: Control—Soaking Seeds in Water;
as §1
Analysis was conducted according to the government standards GOST 12038-84 “Crop seeds. Technical conditions for determining the germination energy and germination rate”, GOST 12044-93 “Crop seeds. Methods for determining disease contamination.”
as §2, §3

[2] = rice seed treatment, comparison with Melaphen (Table XXXIII), solution 1 · 10^−9%
[3] = rice seeds, solution concentration 1 · 10^−6%
[4] = rice seeds, solution concentration 1 · 10^−7%
[5] = rice seeds, solution concentration 1 · 10^−8%
[6] = rice seeds, solution concentration 1 · 10^−9%
[7] = rice seeds, solution concentration 1 · 10^−10%
[8] = rice seeds, solution concentration 1 · 10^−11%
[9] = rice seeds, solution concentration 1 · 10^−12%
[10] = rice, vs control, 1·10^−9% solution
[11] = winter wheat Vershin, 1·10^−6% solution
[12] = winter wheat Vershin, 1·10^−7% solution
[13] = winter wheat Vershin, 1·10^−8% solution
[14] = winter wheat Vershin, 1·10^−9% solution
[15] = winter wheat Vershin, 1·10^−10% solution
[16] = winter wheat Vershin, 1·10^−11% solution
[17] = winter wheat Vershin, 1·10^−12% solution
[18] = winter wheat, comparative study vs Melaphen, 1·10^−10% solution

With `O.O.O=P([O-])(CO)CO.O=P([O-])(CO)CO.[Co+2]` [Co-salt, Cobalt BHMPA Salt] the “optimum concentration for treating rice seeds before sowing” value (rice (Diamant variety); rice) was 1·10^−9%, the “Length, root” value (rice (Diamant variety); [2]) was 6.4 cm and the “Length, root, + % to control” value (rice (Diamant variety); [2]) was 33%. For the same molecule, the “Length, sprout” value (rice (Diamant variety); [2]) was 3.7 cm, the “Length, sprout, + % to control” value (rice (Diamant variety); [2]) was 42% and the “Mass, dry, root” value (rice (Diamant variety); [2]) was 0.25 g/100 plantlings. For the same molecule, the “Mass, dry, root, + % to control” value (rice (Diamant variety); [2]) was 19%, the “Mass, dry, sprout” value (rice (Diamant variety); [2]) was 0.28 g/100 plantlings and the “Mass, dry, sprout, + % to control” value (rice (Diamant variety); [2]) was 12%. The “Mass, wet, root” value (rice (Diamant variety); [2]) was 1.37 g/100 plantlings, the “Mass, wet, root, + % to control” value (rice (Diamant variety); [2]) was 40% and the “Mass, wet, sprout” value (rice (Diamant variety); [2]) was 2.28 g/100 plantlings. For the same molecule, the “Mass, wet, sprout, + % to control” value (rice (Diamant variety); [2]) was 51%, the “Length, root” value (rice (Diamant variety); [3]) was 5.1 cm and the “Length, root, + % to control” value (rice (Diamant variety); [3]) was 8.5%. For the same molecule, the “Length, sprout” value (rice (Diamant variety); [3]) was 2.6 cm, the “Length, sprout, + % to control” value (rice (Diamant variety); [3]) was 13% and the “Mass, dry, root” value (rice (Diamant variety); [3]) was 0.19 g/100 plantlings. For the same molecule, the “Mass, dry, root, + % to control” value (rice (Diamant variety); [3]) was 12%, the “Mass, dry, sprout” value (rice (Diamant variety); [3]) was 0.25 g/100 plantlings and the “Mass, dry, sprout, + % to control” value (rice (Diamant variety); [3]) was 25%. For the same molecule, the “Mass, wet, root” value (rice (Diamant variety); [3]) was 0.89 g/100 plantlings, the “Mass, wet, root, + % to control” value (rice (Diamant variety); [3]) was 8.5% and the “Mass, wet, sprout” value (rice (Diamant variety); [3]) was 1.71 g/100 plantlings. The “Mass, wet, sprout, + % to control” value (rice (Diamant variety); [3]) was 15.5%, the “Length, root” value (rice (Diamant variety); [4]) was 5.4 cm and the “Length, root, + % to control” value (rice (Diamant variety); [4]) was 15%. For the same molecule, the “Length, sprout” value (rice (Diamant variety); [4]) was 2.9 cm, the “Length, sprout, + % to control” value (rice (Diamant variety); [4]) was 26% and the “Mass, dry, root” value (rice (Diamant variety); [4]) was 0.22 g/100 plantlings. The “Mass, dry, root, + % to control” value (rice (Diamant variety); [4]) was 29%, the “Mass, dry, sprout” value (rice (Diamant variety); [4]) was 0.28 g/100 plantlings and the “Mass, dry, sprout, + % to control” value (rice (Diamant variety); [4]) was 40%. For the same molecule, the “Mass, wet, root” value (rice (Diamant variety); [4]) was 0.94 g/100 plantlings, the “Mass, wet, root, + % to control” value (rice (Diamant variety); [4]) was 15% and the “Mass, wet, sprout” value (rice (Diamant variety); [4]) was 1.80 g/100 plantlings. The “Mass, wet, sprout, + % to control” value (rice (Diamant variety); [4]) was 22%, the “Length, root” value (rice (Diamant variety); [5]) was 5.7 cm and the “Length, root, + % to control” value (rice (Diamant variety); [5]) was 21%. For the same molecule, the “Length, sprout” value (rice (Diamant variety); [5]) was 3.1 cm, the “Length, sprout, + % to control” value (rice (Diamant variety); [5]) was 35% and the “Mass, dry, root” value (rice (Diamant variety); [5]) was 0.24 g/100 plantlings. For the same molecule, the “Mass, dry, root, + % to control” value (rice (Diamant variety); [5]) was 41%, the “Mass, dry, sprout” value (rice (Diamant variety); [5]) was 0.31 g/100 plantlings and the “Mass, dry, sprout, + % to control” value (rice (Diamant variety); [5]) was 55%. For the same molecule, the “Mass, wet, root” value (rice (Diamant variety); [5]) was 1.07 g/100 plantlings, the “Mass, wet, root, + % to control” value (rice (Diamant variety); [5]) was 30% and the “Mass, wet, sprout” value (rice (Diamant variety); [5]) was 2.01 g/100 plantlings. The “Mass, wet, sprout, + % to control” value (rice (Diamant variety); [5]) was 36%, the “Length, root” value (rice (Diamant variety); [6]) was 6.2 cm and the “Length, root, + % to control” value (rice (Diamant variety); [6]) was 32%. For the same molecule, the “Length, sprout” value (rice (Diamant variety); [6]) was 3.5 cm, the “Length, sprout, + % to control” value (rice (Diamant variety); [6]) was 52% and the “Mass, dry, root” value (rice (Diamant variety); [6]) was 0.26 g/100 plantlings. The “Mass, dry, root, + % to control” value (rice (Diamant variety); [6]) was 53%, the “Mass, dry, sprout” value (rice (Diamant variety); [6]) was 0.35 g/100 plantlings and the “Mass, dry, sprout, + % to control” value (rice (Diamant variety); [6]) was 75%. For the same molecule, the “Mass, wet, root” value (rice (Diamant variety); [6]) was 1.15 g/100 plantlings, the “Mass, wet, root, + % to control” value (rice (Diamant variety); [6]) was 40% and the “Mass, wet, sprout” value (rice (Diamant variety); [6]) was 2.09 g/100 plantlings. For the same molecule, the “Mass, wet, sprout, + % to control” value (rice (Diamant variety); [6]) was 41%, the “Length, root” value (rice (Diamant variety); [7]) was 5.8 cm and the “Length, root, + % to control” value (rice (Diamant variety); [7]) was 23%. The “Length, sprout” value (rice (Diamant variety); [7]) was 3.2 cm, the “Length, sprout, + % to control” value (rice (Diamant variety); [7]) was 39% and the “Mass, dry, root” value (rice (Diamant variety); [7]) was 0.23 g/100 plantlings. For the same molecule, the “Mass, dry, root, + % to control” value (rice (Diamant variety); [7]) was 35%, the “Mass, dry, sprout” value (rice (Diamant variety); [7]) was 0.28 g/100 plantlings and the “Mass, dry, sprout, + % to control” value (rice (Diamant variety); [7]) was 40%. For the same molecule, the “Mass, wet, root” value (rice (Diamant variety); [7]) was 1.03 g/100 plantlings, the “Mass, wet, root, + % to control” value (rice (Diamant variety); [7]) was 26% and the “Mass, wet, sprout” value (rice (Diamant variety); [7]) was 1.97 g/100 plantlings. For the same molecule, the “Mass, wet, sprout, + % to control” value (rice (Diamant variety); [7]) was 33%, the “Length, root” value (rice (Diamant variety); [8]) was 5.6 cm and the “Length, root, + % to control” value (rice (Diamant variety); [8]) was 19%. For the same molecule, the “Length, sprout” value (rice (Diamant variety); [8]) was 2.8 cm, the “Length, sprout, + % to control” value (rice (Diamant variety); [8]) was 22% and the “Mass, dry, root” value (rice (Diamant variety); [8]) was 0.20 g/100 plantlings. The “Mass, dry, root, + % to control” value (rice (Diamant variety); [8]) was 18%, the “Mass, dry, sprout” value (rice (Diamant variety); [8]) was 0.26 g/100 plantlings and the “Mass, dry, sprout, + % to control” value (rice (Diamant variety); [8]) was 30%. The “Mass, wet, root” value (rice (Diamant variety); [8]) was 0.94 g/100 plantlings, the “Mass, wet, root, + % to control” value (rice (Diamant variety); [8]) was 15% and the “Mass, wet, sprout” value (rice (Diamant variety); [8]) was 1.89 g/100 plantlings. For the same molecule, the “Mass, wet, sprout, + % to control” value (rice (Diamant variety); [8]) was 28%, the “Length, root” value (rice (Diamant variety); [9]) was 5.2 cm and the “Length, root, + % to control” value (rice (Diamant variety); [9]) was 11%. The “Length, sprout” value (rice (Diamant variety); [9]) was 2.7 cm, the “Length, sprout, + % to control” value (rice (Diamant variety); [9]) was 17% and the “Mass, dry, root” value (rice (Diamant variety); [9]) was 0.19 g/100 plantlings. The “Mass, dry, root, + % to control” value (rice (Diamant variety); [9]) was 12%, the “Mass, dry, sprout” value (rice (Diamant variety); [9]) was 0.24 g/100 plantlings and the “Mass, dry, sprout, + % to control” value (rice (Diamant variety); [9]) was 20%. For the same molecule, the “Mass, wet, root” value (rice (Diamant variety); [9]) was 0.88 g/100 plantlings, the “Mass, wet, root, + % to control” value (rice (Diamant variety); [9]) was 7% and the “Mass, wet, sprout” value (rice (Diamant variety); [9]) was 1.82 g/100 plantlings. For the same molecule, the “Mass, wet, sprout, + % to control” value (rice (Diamant variety); [9]) was 23%, the “dry mass of the roots increased by” value (rice (Diamant variety); [10]) was 53% and the “dry mass of the sprouts increased by” value (rice (Diamant variety); [10]) was 75%. For the same molecule, the “length of the root increased by” value (rice (Diamant variety); [10]) was 32%, the “length of the sprout increased by” value (rice (Diamant variety); [10]) was 52% and the “wet mass of the roots increased by” value (rice (Diamant variety); [10]) was 40%. For the same molecule, the “wet mass of the sprouts increased by” value (rice (Diamant variety); [10]) was 41%, the Germination energy [1, 11] was 89.2% and the Germination rate [1, 11] was 93.0%. For the same molecule, the Germination energy [1, 12] was 91.4%, the Germination rate [1, 12] was 94.0% and the Germination energy [1, 13] was 92.8%. It also gave a Germination rate [1, 13] of 96.0%, a Germination energy [1, 14] of 94.3% and a Germination rate [1, 14] of 97.3%. It also gave a Germination energy [1, 15] of 95.6%, a Germination rate [1, 15] of 98.7% and a Germination energy [1, 16] of 94.7%. The Germination rate [1, 16] was 97.3%, the Germination energy [1, 17] was 92.0% and the Germination rate [1, 17] was 94.7%. For the same molecule, the Germination energy [1, 18] was 93.7% and the Germination rate [1, 18] was 97.3%.
